Measurements reported in article PMC6015499 (Journal of medicinal chemistry, 2017).

Tested on: Huh7.5.1 cells
Test: ATPlite cytotoxicity assay
Type: cell-based
Details: not given
For `Cc1oc(-c2ccc(Cl)c(Cl)c2)nc1CN1CCC(C(=O)NCCCN2C[C@H](C)C[C@H](C)C2)CC1` [7ii, N-(3-(cis-3,5-Dimethylpiperidin-1-yl)propyl)-1-((2-(3,4-dichlorophenyl)-5-methyloxazol-4-yl)methyl)piperidine-4-carboxamide], the “cytotoxicity in combination (ATPlite)” value was “without significant cytotoxicity”.

Tested on: not listed separately
Test: PAMPA permeability
Type: in vitro ADME
Details: not given
For `CC[C@@H]1C[C@H](CC)CN(CCCNC(=O)C2CCN(Cc3nc(-c4ccccc4C)oc3C)CC2)C1` [7c, N-(3-(cis-3,5-Diethylpiperidin-1-yl)propyl)-1-((5-methyl-2-(otolyl)oxazol-4-yl)methyl)piperidine-4-carboxamide], the PAMPA permeability was 1267 1×10^−6 cm/s. For `Cc1ccccc1-c1nc(CN2CCC(C(=O)NCCCN3CCCCC3)CC2)c(C)o1` [7h, N-(3-(Piperidin-1-yl)propyl)-1-((5-methyl-2-(o-tolyl)oxazol-4-yl)-methyl)piperidine-4-carboxamide], the PAMPA permeability was 34.5 1×10^−6 cm/s. In the case of `Cc1ccccc1-c1nc(CN2CCC(C(=O)NCCCN3CC4CCCC(C4)C3)CC2)c(C)o1` [7m, N-(3-(3-Azabicyclo[3.3.1]nonan-3-yl)propyl)-1-((5-methyl-2-(otolyl)oxazol-4-yl)methyl)piperidine-4-carboxamide], the PAMPA permeability was 330.9 1×10^−6 cm/s. In the case of `Cc1oc(-c2c(Br)cccc2Br)nc1CN1CCC(C(=O)NCCCN2C[C@H](C)C[C@H](C)C2)CC1` [7ll, N-(3-(cis-3,5-Dimethylpiperidin-1-yl)propyl)-1-((2-(2,6-dibromophenyl)-5-methyloxazol-4-yl)methyl)piperidine-4-carboxamide], the PAMPA permeability was <1.0 1×10^−6 cm/s. In the case of `Cc1ccc(-c2nc(CN3CCC(C(=O)NCCCN4C[C@H](C)C[C@H](C)C4)CC3)c(C)o2)c(C)c1` [7y, N-(3-(cis-3,5-Dimethylpiperidin-1-yl)propyl)-1-((2-(2,4-dimethylphenyl)-5-methyloxazol-4-yl)methyl)piperidine-4-carboxamide], the PAMPA permeability was 353.1 1×10^−6 cm/s. In the case of `Cc1ccccc1-c1nc(CN2CCC(C(=O)NCCCN3C[C@H](C)C[C@@H](C)C3)CC2)c(C)o1` (racemic) [7b, (±)-N-(3-(trans-3,5-Dimethylpiperidin-1-yl)propyl)-1-((5-methyl-2-(o-tolyl)oxazol-4-yl)methyl)piperidine-4-carboxamide], the PAMPA permeability was 553.7 1×10^−6 cm/s. With `Cc1cccc(F)c1-c1nc(CN2CCC(C(=O)NCCCN3C[C@H](C)C[C@H](C)C3)CC2)c(C)o1` [7ss, N-(3-(cis-3,5-Dimethylpiperidin-1-yl)propyl)-1-((2-(2-fluoro-6-methylphenyl)-5-methyloxazol-4-yl)methyl)piperidine-4-carboxamide] the PAMPA permeability was 233.8 1×10^−6 cm/s. With `Cc1ccc(-c2nc(CN3CCC(C(=O)NCCCN4C[C@H](C)C[C@H](C)C4)CC3)c(C)o2)cc1` [7u, N-(3-(cis-3,5-Dimethylpiperidin-1-yl)propyl)-1-((5-methyl-2-(ptolyl)oxazol-4-yl)methyl)piperidine-4-carboxamide] the PAMPA permeability was 274.3 1×10^−6 cm/s. In the case of `Cc1ccc2ccccc2c1-c1nc(CN2CCC(C(=O)NCCCN3C[C@H](C)C[C@H](C)C3)CC2)c(C)o1` [7bbb, N-(3-(cis-3,5-Dimethylpiperidin-1-yl)propyl)-1-((5-methyl-2-(2-methylnaphthalen-1-yl)oxazol-4-yl)methyl)piperidine-4-carboxamide], the PAMPA permeability was 547.1 1×10^−6 cm/s. In the case of `Cc1cccc(Cl)c1-c1nc(CN2CCC(C(=O)NCCCN3C[C@H](C)C[C@H](C)C3)CC2)c(C)o1` [7nn, N-(3-(cis-3,5-Dimethylpiperidin-1-yl)propyl)-1-((2-(2-chloro-6-methylphenyl)-5-methyloxazol-4-yl)methyl)piperidine-4-carboxamide], the PAMPA permeability was 196.3 1×10^−6 cm/s. In the case of `Cc1ccccc1-c1nc(CN2CCC(C(=O)NCCCN3CCC(C)(C)CC3)CC2)c(C)o1` [7f, N-(3-(4,4-Dimethylpiperidin-1-yl)propyl)-1-((5-methyl-2-(o-tolyl)-oxazol-4-yl)methyl)piperidine-4-carboxamide], the PAMPA permeability was 241.4 1×10^−6 cm/s. In the case of `Cc1ccc(-c2nc(CN3CCC(C(=O)NCCCN4C[C@H](C)C[C@H](C)C4)CC3)c(C)o2)cc1C` [7x, N-(3-(cis-3,5-Dimethylpiperidin-1-yl)propyl)-1-((2-(3,4-dimethylphenyl)-5-methyloxazol-4-yl)methyl)piperidine-4-carboxamide], the PAMPA permeability was 219.4 1×10^−6 cm/s. With `Cc1ccccc1-c1nc(CN2CCC(C(=O)NCCCN3C[C@H](C)C[C@H](C)C3)CC2)c(C)o1` [7a, N-(3-(cis-3,5-Dimethylpiperidin-1-yl)propyl)-1-((5-methyl-2-(o-tolyl)oxazol-4-yl)-methyl)piperidine-4-carboxamide] the PAMPA permeability was 489.1 1×10^−6 cm/s. For `Cc1ccccc1-c1nc(CN2CCC(C(=O)N3CCN(C4CCN(C)CC4)CC3)CC2)c(C)o1` [7r, (1-((5-Methyl-2-(o-tolyl)oxazol-4-yl)methyl)piperidin-4-yl)(4-(1-methylpiperidin-4-yl)piperazin-1-yl)methanone], the PAMPA permeability was <3.2 1×10^−6 cm/s. For `CC[C@@H]1C[C@H](CC)CN(CCCNC(=O)C2CCN(Cc3nc(-c4c(F)cccc4F)oc3C)CC2)C1` [7kk, N-(3-(cis-3,5-Diethylpiperidin-1-yl)propyl)-1-((2-(2,6-difluorophenyl)-5-methyloxazol-4-yl)methyl)piperidine-4-carboxamide], the PAMPA permeability was 129.9 1×10^−6 cm/s. In the case of `Cc1ccccc1-c1nc(CN2CCC(C(=O)NCCCN3CCC(C(C)C)CC3)CC2)c(C)o1` [7e, N-(3-(4-Isopropylpiperidin-1-yl)propyl)-1-((5-methyl-2-(o-tolyl)-oxazol-4-yl)methyl)piperidine-4-carboxamide], the PAMPA permeability was 395.6 1×10^−6 cm/s. For `Cc1cc(C)cc(-c2nc(CN3CCC(C(=O)NCCCN4C[C@H](C)C[C@H](C)C4)CC3)c(C)o2)c1` [7z, N-(3-(cis-3,5-Dimethylpiperidin-1-yl)propyl)-1-((2-(3,5-dimethylphenyl)-5-methyloxazol-4-yl)methyl)piperidine-4-carboxamide], the PAMPA permeability was 864 1×10^−6 cm/s. In the case of `Cc1cccc(Cl)c1-c1nc(CN2CCC(C(=O)NCCCN3CCCC(C)C3)CC2)c(C)o1` (racemic) [7oo, (±)-1-((2-(2-Chloro-6-methylphenyl)-5-methyloxazol-4-yl)-methyl)-N-(3-(3-methylpiperidin-1-yl)propyl)piperidine-4-carboxamide], the PAMPA permeability was 650.6 1×10^−6 cm/s. With `CCN(CC)CCCCNC(=O)C1CCN(Cc2nc(-c3ccc(OC)c(OC)c3)oc2C)CC1` [7zz, N-(4-(Diethylamino)butyl)-1-((2-(3,4-dimethoxyphenyl)-5-methyloxazol-4-yl)methyl)piperidine-4-carboxamide] the PAMPA permeability was 10.4 1×10^−6 cm/s. In the case of `Cc1ccccc1-c1nc(CN2CCC(C(=O)NCCCN3CCCC(CC(C)C)C3)CC2)c(C)o1` (racemic) [7l, (±)-N-(3-(3-Isobutylpiperidin-1-yl)propyl)-1-((5-methyl-2-(otolyl)oxazol-4-yl)methyl)piperidine-4-carboxamide], the PAMPA permeability was 3 1×10^−6 cm/s. With `CCc1ccccc1-c1nc(CN2CCC(C(=O)NCCCN3C[C@H](C)C[C@H](C)C3)CC2)c(C)o1` [7v, N-(3-(cis-3,5-Dimethylpiperidin-1-yl)propyl)-1-((2-(2-ethylphenyl)-5-methyloxazol-4-yl)methyl)piperidine-4-carboxamide] the PAMPA permeability was 106.1 1×10^−6 cm/s. With `Cc1ccccc1-c1nc(CN2CCC(C(=O)NCCN3C[C@H](C)C[C@H](C)C3)CC2)c(C)o1` [7n, N-(3-(cis-3,5-Dimethylpiperidin-1-yl)ethyl)-1-((5-methyl-2-(otolyl)oxazol-4-yl)methyl)piperidine-4-carboxamide] the PAMPA permeability was 712.4 1×10^−6 cm/s. For `Cc1oc(-c2ccc(Cl)c(Cl)c2)nc1CN1CCC(C(=O)NCCCN2C[C@H](C)C[C@H](C)C2)CC1` [7ii, N-(3-(cis-3,5-Dimethylpiperidin-1-yl)propyl)-1-((2-(3,4-dichlorophenyl)-5-methyloxazol-4-yl)methyl)piperidine-4-carboxamide], the PAMPA permeability was 522 1×10^−6 cm/s. In the case of `Cc1ccccc1-c1nc(CN2CCC(C(=O)NCCCN3CCC(C)CC3)CC2)c(C)o1` [7g, N-(3-(4-Methylpiperidin-1-yl)propyl)-1-((5-methyl-2-(o-tolyl)-oxazol-4-yl)methyl)piperidine-4-carboxamide], the PAMPA permeability was 424.7 1×10^−6 cm/s. With `Cc1ccccc1-c1nc(CN2CCC(C(=O)NCCCN3CCOCC3)CC2)c(C)o1` [7q] the PAMPA permeability was 432.4 1×10^−6 cm/s. In the case of `COc1cccc(Br)c1-c1nc(CN2CCC(C(=O)NCCCN3C[C@H](C)C[C@H](C)C3)CC2)c(C)o1` [7tt, N-(3-(cis-3,5-Dimethylpiperidin-1-yl)propyl)-1-((2-(2-bromo-6-methoxyphenyl)-5-methyloxazol-4-yl)methyl)piperidine-4-carboxamide], the PAMPA permeability was 245.3 1×10^−6 cm/s. With `Cc1cc(-c2nc(CN3CCC(C(=O)NCCCN4CCC(C(C)C)CC4)CC3)co2)ccc1F` [18b, 1-((2-(4-Fluoro-3-methylphenyl)oxazol-4-yl)methyl)-N-(3-(4-isopropylpiperidin-1-yl)propyl)piperidine-4-carboxamide] the PAMPA permeability was 276.4 1×10^−6 cm/s. In the case of `Cc1cccc(C)c1-c1nc(CN2CCC(C(=O)NCCCN3C[C@H](C)C[C@H](C)C3)CC2)c(C)o1` [7w, N-(3-(cis-3,5-Dimethylpiperidin-1-yl)propyl)-1-((2-(2,6-dimethylphenyl)-5-methyloxazol-4-yl)methyl)piperidine-4-carboxamide], the PAMPA permeability was 253.9 1×10^−6 cm/s. In the case of `COc1ccc(-c2nc(CN3CCC(C(=O)NCCCN4C[C@H](C)C[C@H](C)C4)CC3)c(C)o2)cc1OC` [7yy], the PAMPA permeability was 81.9 1×10^−6 cm/s.

Same assay, conditions: PAMPA
With “N-(3-(cis-3,5-Dimethylpiperidin-1-yl)propyl)-1-((2-(2-chloro-6-methoxyphenyl)-5-methyloxazol-4-yl)methyl)piperidine-4-carboxamide [7ww]” the PAMPA permeability was 197.7 1×10^−6 cm/s.

Tested on: not listed separately
Test: aqueous kinetic solubility
Type: physicochemical
Details: phosphate buffer (pH 7.4)
In the case of “N-(3-(cis-3,5-Dimethylpiperidin-1-yl)propyl)-1-((2-(2-chloro-6-methoxyphenyl)-5-methyloxazol-4-yl)methyl)piperidine-4-carboxamide [7ww]”, the aqueous solubility was >73.0 µg/mL.

Tested on: not listed separately
Test: In vivo pharmacokinetics and tissue distribution in mice
Design: species or system male CD-1 mice
Details: mouse, single i.p. dose 1 mg/kg
For `Cc1oc(-c2ccc(Cl)c(Cl)c2)nc1CN1CCC(C(=O)NCCCN2C[C@H](C)C[C@H](C)C2)CC1` [7ii, N-(3-(cis-3,5-Dimethylpiperidin-1-yl)propyl)-1-((2-(3,4-dichlorophenyl)-5-methyloxazol-4-yl)methyl)piperidine-4-carboxamide], the “liver concentration throughout 24 h post-administration” value was 3.33 to 9.82 µM.

Tested on: not listed separately
Test: ALT level in mouse serum during pharmacokinetics study
Type: in vivo
Details: mouse model
With `Cc1oc(-c2ccc(Cl)c(Cl)c2)nc1CN1CCC(C(=O)NCCCN2C[C@H](C)C[C@H](C)C2)CC1` [7ii, N-(3-(cis-3,5-Dimethylpiperidin-1-yl)propyl)-1-((2-(3,4-dichlorophenyl)-5-methyloxazol-4-yl)methyl)piperidine-4-carboxamide] the “hepatotoxicity indicated by ALT level” value was “without obvious hepatotoxicity”.
